From patent EP3236920B1, “ANTIMICROBIAL PREPARATION COMPRISING BISPYRIDINIUM ALKANES, 1- OR 2-(C1 TO C24 ALKYL) GLYCEROL ETHER AND ALKANE-1,2-DIOLS” (Beiersdorf AG, priority 2014, dated 2016)

Experiments:
Propionibakterium acnes [1] = settings: 0,2% Decan-1,2-diol alone; cited from earlier work
Propionibakterium acnes [2] = assay: Suspension test, antimicrobial efficacy (reduction factor of cell count vs control); assay type: cell-based, P. acnes (DSM 1897); settings: after 24h at 37°C, anaerobic medium; cfu(Kontrolle)/cfu(Testsubstanz); A: 0,2 µg/ml TPI 2007; B: 250 µg/ml Decan-1,2-diol; C: 250 µg/ml Decan-1,2-diol + 0,2 µg/ml TPI 2007
Description: Die antimikrobielle Wirksamkeit der erfindungsgemäßen dermatologischen und/oder kosmetischen Zubereitung gegen Propionibakterium acnes (P. acnes) wurde zum Vergleich mit verschiedenen Formulierungen untersucht.
Dazu wurde das Bakterium P. acnes (DSM 1897) aus einem nach EN 12353 angelegten Cryoröhrchen auf einer entsprechenden Agarplatte (Cost-Agar) ausgestrichen und bei 37°C 5 Tage unter anaeroben Bedingungen bebrütet.
Eine Impföse der Bakterien wurde zu 10mL anaerobem Medium gegeben und im Impedanzgerät mit dem Programm PR37NT unter anaeroben Bedingungen inkubiert. Anschließend wurde diese Bakteriensuspension auf eine OD (optische Dichte) von 0,3-0,5 eingestellt. Die eingestellte Bakteriensuspension wurde dann 1:10 mit anaerobem Medium verdünnt, um eine Keimzahl von ungefähr 5*10^6 zu gewährleisten. Diese Bakteriensuspension wurde anschließend für den Test eingesetzt.
Der Suspensionstest wurde per Hand durchgeführt. Hierzu wurden 500µL der zu testenden Wirkstofflösungen bzw. im Falle der Kontrollen 500 µl anaerobem Medium in Mikroreaktionsgefäßen vorgelegt. Anschließend wurden 500 µl der Bakteriensuspension hinzugegeben und gemischt. Zum Zeitpunkt t0 wurde eine Probe aus den Kontrollen entnommen. Die Mikroreaktionsgefäße wurden nun im Thermoschüttler bei 37 °C inkubiert. […]

## CCCCCCCCC(O)CO (centres unmarked) [Probe B, Decan-1,2-diol]
Propionibakterium acnes [1]
  antibakterielle Wirkung im Suspensionstest: so gut wie keine antibakterielle Wirkung
Propionibakterium acnes [2]
  Reduktionsfaktor: 1
